Results on 3 molecules are retold here after US7129215B2, “Tripeptide and tetrapeptide thioethers” (Telik, Inc., priority 2005, dated 2006).

SMILES strings stand for the structures. Like-named read-outs stand apart in the source and are kept apart here. *1 amine or outer side, *2 acyl side, *3 side chain or, on linkers, in order; H or OH if unused. Where a SMILES comes first, the peptide text is derived from it. [ ]: non-standard residue; d: D form. The star is where a group is joined. γGlu = O=C(O)[C@H](CCC(=O)[*:2])N[*:1]; dPhg = N[C@@H](C(=O)O)c1ccccc1; Bn = c1ccc(C*)cc1

Data set [1] concerns the target T1, Recombinant human GST P1-1 (Homo sapiens, UniProt P09211).
T1 construct: purchased EMD Biosciences, Inc., San Diego, Calif., U.S.A
In words: Inhibition of glutathione S-transferase isoenzyme GST P1-1. The class given is biochemical. How it is done:
(§1) Inhibition of glutathione S-transferase isoenzymes.
(§2) For each assay, the test compound and GSH were added to the isoenzyme. Immediately after the addition of CDNB solution to the isoenzyme/compound/GSH solution, the absorbance at 340 nm was recorded continuously for 5 min on a SpectraMax plate reader (Molecular Devices, Inc., Sunnyvale, Calif., U.S.A.). The GST inhibitory activity of each compound was calculated from the slopes of the absorbance/time curves at the various concentrations of test compound. All assays were conducted in duplicate wells, with DMSO control, with the final DMSO concentration maintained at 2%.

For data set [2], the target named is T2, Recombinant human GST A1-1 (Homo sapiens, UniProt P08263).
T2 construct: purchased EMD Biosciences, Inc., San Diego, Calif., U.S.A
T2 sequence (P08263 1-222): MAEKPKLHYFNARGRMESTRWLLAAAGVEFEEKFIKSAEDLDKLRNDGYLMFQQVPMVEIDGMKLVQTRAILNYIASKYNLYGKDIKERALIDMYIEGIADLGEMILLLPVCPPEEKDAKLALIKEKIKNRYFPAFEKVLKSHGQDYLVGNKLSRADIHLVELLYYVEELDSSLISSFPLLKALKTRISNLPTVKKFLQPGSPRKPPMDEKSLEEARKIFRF
In words: Inhibition of glutathione S-transferase isoenzyme GST A1-1. Format: biochemical. The method, then:
as §1, §2

Data set [3] concerns the target T3, Recombinant human GST M1-1 (Homo sapiens, UniProt P09488).
T3 construct: purchased EMD Biosciences, Inc., San Diego, Calif., U.S.A
T3 sequence (P09488 2-218 limits assumed): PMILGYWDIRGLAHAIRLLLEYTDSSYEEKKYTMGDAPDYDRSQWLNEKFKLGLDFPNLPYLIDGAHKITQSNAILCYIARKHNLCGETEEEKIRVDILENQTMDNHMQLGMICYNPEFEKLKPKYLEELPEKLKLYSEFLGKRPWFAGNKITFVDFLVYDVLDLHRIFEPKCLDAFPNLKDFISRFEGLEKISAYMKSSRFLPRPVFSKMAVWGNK
Description: Inhibition of glutathione S-transferase isoenzyme GST M1-1. The class given is biochemical. The method, then: as §1, §2

In another data set the target is T4, GSTπ (Homo sapiens, UniProt P09211).
T4 construct: endogenous in cells; host or cells: HL-60 (human promyeloid myelocytic leukemia)
In words: GSTπ immunoprecipitation assay in HL60 cells. Format: cell-based. As to conditions: HL-60, read-out: GSTπ inhibition, %. How it is done:
In vitro example 3. GSTπ immunoprecipitation assay. This example illustrates the beneficial effects of compounds of this invention in causing GSTπ immunoprecipitation. […] HL60 cells were seeded at 6×10^5 cells/mL in 20 mL RPMI-1640 medium supplemented with 10% fetal bovine serum, 1 mM glutamine and 20 μM gentamycin in a T75 flask and cultured overnight in 5% CO2 atmosphere at 37° C. […] Following the treatment, the cells were collected by centrifugation and washed twice with phosphate-buffered saline. The cell pellets were resuspended in 1 mL lysis buffer (50 mM Tris, pH 8.0, 120 mM NaCl, 0.5% NP-40 surfactant, 100 mM NaF; to which protease and phosphatase inhibitors (Roche Diagnostics, Indianapolis, Ind., U.S.A.) had been added before use) and incubated with gentle agitation for 30 minutes at 4° C. The cell lysates were cleared by centrifugation at 13,000 rpm for 10 minutes to remove cell debris. […] Following overnight incubation at 4° C., 30 μL of Protein A/G agarose beads (Pierce, Rockford, Ill.) were added to the mixture and incubated for 1 hour at 4° C. […] GSTπ protein bands were visualized and band intensity quantified on Odyssey infrared scanner (Li-Cor, Lincoln, Nebr., U.S.A.). The band intensity from a compound treatment was compared to its corresponding DMSO control and expressed as percent inhibition.

Data set [4] addresses T1, Recombinant human GST P1-1. Conditions: background statement; read-out: GST P1-1 IC50 (related art statement); cited from earlier work.
Data set [5] has as its system HL-60 human leukemia cell line. Description: Cytotoxicity in HL-60 cells (CellTiter-Glo). As to conditions: read-out: HL-60 CC50 (concentration that causes 50% growth inhibition); diethyl ester compounds (1B to 12B, TLK199); 72 hours.
Description: Cytotoxicity in HL-60 cells.
The cells were then incubated for 72 hours (approximately three doubling times). The cells were then harvested by centrifugation (1200 rpm for 5 min at 20° C.), and 100 μL of the culture supernatant was removed and replaced by the same volume of the CellTiter-Glo reagent. After incubation for 10 minutes at room temperature with constant mixing, the plate was read with a luminometer, with the number of live cells being proportional to the observed luminescence. All assays were conducted in triplicate wells, with DMSO solvent control.
Data set [6] has as its system HL-60 cells. Description: Enhancement of differentiation of HL-60 cells (CD11b expression, flow cytometry). Format: cell-based, human. Conditions: diethyl ester compounds; 24 hours; CD11b expression vs DMSO control. How it is done: Some of the diethyl ester compounds of this invention were also tested for their ability to enhance the differentiation of HL-60 cells. This illustrates the beneficial effect of the compounds of this invention in stimulating differentiation of the HL-60 human leukemia cell line in vitro. […] The cells were harvested by centrifugation (1250 rpm for 5 min at 20° C.) and washed with 2 mL ice-cold phosphate-buffered saline (PBS) containing 2% FBS, then stained with 10 μL phycoerythrin-conjugated anti-CD11b antibody or 10 μL phycoerythrin-conjugated isotype control antibody. After standing for 30 min on ice, the cells were re-suspended in 2 mL ice-cold PBS containing 2% FBS. The cells were harvested by centrifugation (1250 rpm for 5 min at 20° C.) and resuspended in 0.4 mL PBS containing 2% FBS. The specific cell surface expression of CD11b, a marker for granulocytes and monocytes, was detected by flow cytometry using a FACSCalibur analyzer (BD Biosciences). All assays were conducted in triplicate, with DMSO control. The extent of differentiation was expressed as a multiple of the signal from the DMSO control.
For orientation: Flow cytometry measures light scatter and fluorescence of single cells or particles in a stream.

For data set [7], the system named is HL-60 cells. As to conditions: background statement; cited from earlier work.
The conditions of data set [8]: both in vitro and in vivo; cited from earlier work.
The subject of data set [9] is hematopoietic progenitor cells. Conditions: normal human peripheral blood; cited from earlier work.
The conditions of data set [10]: normal animals and animals depleted by cisplatin or fluorouracil; cited from earlier work.
For data set [11] the following is noted: Phase II, MDS, interim results; cited from earlier work.

T1 sequence (P09211 2-210 limits assumed): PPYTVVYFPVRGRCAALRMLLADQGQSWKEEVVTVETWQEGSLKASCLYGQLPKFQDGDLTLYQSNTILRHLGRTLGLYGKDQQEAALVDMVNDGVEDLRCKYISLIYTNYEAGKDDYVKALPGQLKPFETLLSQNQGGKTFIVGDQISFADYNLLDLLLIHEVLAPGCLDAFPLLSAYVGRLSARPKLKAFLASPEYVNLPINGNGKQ
T4 sequence (P09211 2-210 limits assumed): as above

A word on the IC50: it is the midpoint of a concentration-inhibition curve. In general, inhibition refers to how much of the control response was suppressed. Turning to `N[C@@H](CCC(=O)N[C@@H](CSCc1ccccc1)C(=O)N[C@@H](C(=O)O)c1ccccc1)C(=O)O` [TLK117, L-γ-glutamyl-S-(phenylmethyl)-L-cysteinyl-D-phenylglycine] (γGlu-Cys(Bn)-[dPhg]-OH), the half-maximal inhibitory concentration (IC50) in data set [1] is 0.409 µM; in data set [2], 17 µM; in data set [3], 70 µM; in [4], around 0.4 µM. Also, the inhibition at 20 µM on GSTπ turned out to be 90%.

Take `N[C@@H](CCC(=O)N[C@@H](CSCc1ccc(Cl)cc1)C(=O)N[C@@H](C(=O)O)c1ccccc1)C(=O)O` [TLK137]: the IC50 in [1] (diacid compounds (1A to 12A, TLK117, TLK137), GSH and CDNB at 2×Km, pH 6.5) is 0.052 µM; in data set [2] (diacid compounds, GSH and CDNB at 2×Km, pH 6.5, read-out: GST A1-1 IC50), 10 µM; in [3] (diacid compounds, GSH and CDNB at 2×Km, pH 6.5, read-out: GST M1-1 IC50) it was 6.5 µM. Further, the CC50 in data set [5] was 10 µM.

For the molecule `CCOC(=O)[C@@H](N)CCC(=O)N[C@@H](CSCc1ccccc1)C(=O)N[C@@H](C(=O)OCC)c1ccccc1` [TLK199], the “Enhancement of differentiation of HL-60 cells” value with HL-60 cells [6] is listed as “enhances differentiation”. The “Differentiation of HL-60 promyelocytic leukemia cells in vitro” value in the data set with HL-60 cells [7] is given as “induce the differentiation”. Besides, the “Potentiation of the activity of cytotoxic agents” value in data set [8] is “potentiate the activity of cytotoxic agents”. In addition, the “Colony formation of hematopoietic progenitor cells” value in data set [9] is on record as “stimulate colony formation of all three lineages”. Further, the “White blood cell production” value in data set [10] is reported as “increase white blood cell production”. In addition, in data set [11], the Hematologic improvement result is “multilineage hematologic improvement” and the Tolerability result is on record as “well tolerated”.
